Assay results published in patent US20070154393A1, “Bioassay for volatile low molecular weight insecticides and methods of use” (priority 2005, published 2007).

The compounds below were run on insecticide-susceptible Drosophila melanogaster (Canton-S strain). Settings: Table 1; Canton-S, 24 hr exposure, probit analysis.
Assay type: in vivo
Experimental: The insecticide-susceptible Canton-S strain of Drosophila was obtained from the Bloomington Drosophila stock center (Indiana University, Bloomington, Ind.), and used exclusively in all studies. Flies were reared in 100-ml vials capped with acetate plugs (Fisher Scientific; Suwannee, Ga.) on a JAZZ-MIX diet (Fisher) prepared with a 2:1 ratio of water to apple juice. Flies were reared on a 12:12 photocycle at 24° C. and ambient relative humidity. Mixed-sex adults, less than 1-wk old, were used in bioassays.
Flies were briefly anesthetized in rearing vials with a pulse of CO2 and transferred to a CO2 flowbed (Genesee Scientific; San Diego, Calif.). Using a camel hair brush and a 5×5 cm sheet of rice paper, ten flies were placed into 7.0 ml dram vials. Prior to adding flies, each vial received a 0.5 cm^3 block of rearing diet that had been sufficiently dried on a paper towel to remove excessive moisture. The vials were then capped with open-top septum caps (Fisher) that were covered with fine mesh. The mesh was applied to the septum caps in advance using hot glue; it prevented fly escape but readily permitted gas exchange. The flies were allowed 1-hr to recover from the CO2 anesthesia. After one hour, single vials with flies were placed into 0.5 L glass jars, along with a filter paper tent (see FIG. 1). In a fume hood, filter paper tents were treated with insecticide dilutions or acetone for controls. The jars were then rapidly closed tightly with a metal lid. After 24 hours of exposure, mortality was scored with the aid of a magnifying glass.
All test compounds and solvents were >99% purity, and were purchased from Sigma-Aldrich Chemical (Milwaukee, Wis.). See Table 1 for a listing of the test compounds and their structures. Insecticide stock solutions were prepared at a standard concentration of 100 μg/μl in analytical grade acetone. For liquid insecticidal compounds, density in mg/μl was used to calculate weight on a per-volume basis. Stock solutions were held at −20° C. in sealed amber vials. In bioassay jars, filter paper tents were treated with stock volumes ranging from 2 to 20 μl, depending on the inherent toxicity of the test compound. These volumes of insecticide stock provided test concentrations of 200 to 2000 μg insecticide per replicate jar. A range of 4-5 concentrations plus a control were tested for each insecticide, and each range was repeated five times over at least three days. Controls received a volume of acetone identical to the highest insecticide volume that was tested (i.e., 10 μl for menthofuran; 20 μl for all other insecticides). Between uses, bioassay jars and lids were washed in a dishwasher, then baked 12-16 hr at 90° C. in a drying oven.
Probit and regression analyses were performed using the PROC PROBIT and PROC REG procedures, respectively. […] If control mortality ever exceeded 10% in a given replicate, that replicate was discarded.
Four Drosophila strains were used, all obtained from the Bloomington Drosophila Stock Center (Indiana University; Bloomington, Ind.). The Canton-S strain was used as the insecticide-susceptible standard. The Hikone-R strain is metabolically-resistant with elevated cytochrome P450 levels (Waters et al., 1984; Sundseth et al., 1989; Le Goff et al., 2003; Festucci-Buselli et al., 2005). Hikone-R is resistant to a number of insecticides, including malathion, DDT and neonicotinoids (Sundseth et al., 1989; Daborn et al., 2001). Two resistant neurological-mutant strains were also tested. […] Flies were reared in 100-ml vials capped with acetate plugs (Fisher Scientific; Suwanee, Ga.) on a commercial diet (JAZZ-MIX; Fisher Scientific). Flies were reared on a 12:12 photocycle at 24° C. and 60% relative humidity. Mixed-sex adults, less than 1-wk old, were used in bioassays.

With methyl acetate as the compound, how does the “Slope ± Std. Error (best-fit probit mortality line)” value read?
The value was 2.86 ± 0.91.

Same assay, conditions: in vivo

Which “LC50 (95% CL)” value does the source give for `Cc1oc2ccccc2c1C` here?
The value was 1960.0 (1543.0 − 2452.0) μg/jar.

Which “LC50 (95% CL)” value does the source give for `CCCCOC(=O)CC` [BUTYL propionate, butyl propionate] here?
Its value is 2126.0 (1894.0 − 2670.0) μg/jar.

For `CCOC(C)=O` [ETHYL acetate, ethyl acetate], which “LC50 (95% CL)” value is on record?
The value was 3530.0 (2488.0 − 12723.0) μg/jar.

`CCCC(=O)OCC` [ETHYL butyrate, ethyl butyrate] was tested. Which “LC50 (95% CL)” value did it give?
Its value is 2034.0 (ND) μg/jar.

Which “LC50 (95% CL)” value does the source give for `CCOC(=O)CC` [ETHYL propionate, ethyl propionate] here?
Its value is 3395.0 (2439.0 − 9039.0) μg/jar.

With `CCCCC(=O)OCC` [ETHYL valerate, ethyl valerate] as the compound, how does the “LC50 (95% CL)” value read?
The value was 2092.0 (1837.0 − 2670.0) μg/jar.

Which “LC50 (95% CL)” value does the source give for `CCCCCCOC(C)=O` [HEXYL acetate, hexyl acetate] here?
Its value is 1666.0 (1582.0 − 1755.0) μg/jar.

How did the “LC50 (95% CL)” value turn out when `c1ccc2[nH]ccc2c1` [INDOLE, indole] was run?
Its value is 2769.0 (2137.0 − 7873.0) μg/jar.

With `CC(=O)OC(C)C` [ISO-PROPYL acetate, iso-propyl acetate] as the compound, how does the “LC50 (95% CL)” value read?
The value was 1611.0 (1458.0 − 1782.0) μg/jar.

How did the “LC50 (95% CL)” value turn out when `CCCC(=O)OC` [METHYL butyrate, methyl butyrate] was run?
The value was 2026.0 (1872.0 − 2314.0) μg/jar.

How did the “LC50 (95% CL)” value turn out when `CCC(=O)OC` [METHYL propionate, methyl propionate] was run?
Its value is 2391.0 (2076.0 − 3433.0) μg/jar.

How did the “LC50 (95% CL)” value turn out when `CCCCC(=O)OC` [METHYL valerate, methyl valerate] was run?
The value was 2209.0 (1897.0 − 2997.0) μg/jar.

Which “LC50 (95% CL)” value does the source give for `CCCCCOC(C)=O` [PENTYL acetate, pentyl acetate] here?
Its value is 1792.0 (1658.0 − 1987.0) μg/jar.

With `CCCOC(C)=O` [PROPYL acetate, propyl acetate] as the compound, how does the “LC50 (95% CL)” value read?
Its value is 2056.0 (ND) μg/jar.

For `CCCOC(=O)CCC` [PROPYL butyrate, propyl butyrate], which “LC50 (95% CL)” value is on record?
The value was 2035.0 (ND) μg/jar.

For `CCCOC(=O)CC` [PROPYL propionate, propyl propionate], which “LC50 (95% CL)” value is on record?
Its value is 1931.0 (ND) μg/jar.

For `CCO` [ethanol], which “mortality elicited by solvent carrier” value is on record?
The value was “No mortality”.

With `CCCCCC` [hexane] as the compound, how does the “mortality elicited by solvent carrier” value read?
Its value is “No mortality”.

Which “LC50 (95% CL)” value does the source give for `CCCCOC(C)=O` [n-BUTYL acetate, n-butyl acetate] here?
The value was 1821.0 (1730.0 − 1930.0) μg/jar.

For `CC(=O)OC(C)(C)C` [t-BUTYL acetate, t-butyl acetate], which “LC50 (95% CL)” value is on record?
Its value is 2134.0 (1943.0 − 2598.0) μg/jar.

For methyl acetate, which “LC50 (95% CL)” value is on record?
Its value is 2268.0 (ND) μg/jar.

Same assay, conditions: solvent carriers tested alone under optimized bioassay conditions

`C[S+](C)[O-]` [DMSO] was tested. Which “mortality elicited by solvent carrier” value did it give?
The value was “No mortality”.

For `CC(C)=O` [acetone], which “mortality elicited by solvent carrier” value is on record?
The value was “No mortality”.

How did the “mortality elicited by solvent carrier” value turn out when `CC(C)O` [isopropanol] was run?
The value was 100%.

`CO` [methanol] was tested. Which “mortality elicited by solvent carrier” value did it give?
Its value is “No mortality”.

Which “mortality elicited by solvent carrier” value does the source give for `COCCO` [methyl cellosolve] here?
Its value is “No mortality”.
